Drawing on patent US10150758B2, “PRMT5 inhibitors and uses thereof” (Epizyme, Inc., priority 2012, dated 2018), this text covers IC50 for eleven compounds.

PRMT5/MEP50, sequence (O14744 other isoform, or with tags, fused parts or gaps): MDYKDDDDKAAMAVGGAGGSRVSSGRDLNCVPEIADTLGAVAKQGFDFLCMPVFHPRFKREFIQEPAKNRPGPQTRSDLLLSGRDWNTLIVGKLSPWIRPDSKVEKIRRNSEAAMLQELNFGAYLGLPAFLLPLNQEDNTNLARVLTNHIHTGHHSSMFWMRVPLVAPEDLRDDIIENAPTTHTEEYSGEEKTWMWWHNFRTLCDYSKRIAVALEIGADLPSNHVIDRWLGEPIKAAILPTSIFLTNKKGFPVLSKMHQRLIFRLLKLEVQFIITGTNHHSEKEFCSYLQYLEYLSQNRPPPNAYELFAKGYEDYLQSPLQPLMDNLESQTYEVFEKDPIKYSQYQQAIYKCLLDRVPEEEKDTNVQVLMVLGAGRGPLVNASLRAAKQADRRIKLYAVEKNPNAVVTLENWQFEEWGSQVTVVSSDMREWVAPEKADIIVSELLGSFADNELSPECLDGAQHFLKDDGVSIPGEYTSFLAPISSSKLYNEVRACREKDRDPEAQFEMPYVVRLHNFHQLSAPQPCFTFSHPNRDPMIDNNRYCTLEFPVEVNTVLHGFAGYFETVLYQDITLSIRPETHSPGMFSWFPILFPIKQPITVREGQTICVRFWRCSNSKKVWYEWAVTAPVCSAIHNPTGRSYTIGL
PRMT5/MEP50, sequence (Q9BQA1 other isoform, or with tags, fused parts or gaps partner): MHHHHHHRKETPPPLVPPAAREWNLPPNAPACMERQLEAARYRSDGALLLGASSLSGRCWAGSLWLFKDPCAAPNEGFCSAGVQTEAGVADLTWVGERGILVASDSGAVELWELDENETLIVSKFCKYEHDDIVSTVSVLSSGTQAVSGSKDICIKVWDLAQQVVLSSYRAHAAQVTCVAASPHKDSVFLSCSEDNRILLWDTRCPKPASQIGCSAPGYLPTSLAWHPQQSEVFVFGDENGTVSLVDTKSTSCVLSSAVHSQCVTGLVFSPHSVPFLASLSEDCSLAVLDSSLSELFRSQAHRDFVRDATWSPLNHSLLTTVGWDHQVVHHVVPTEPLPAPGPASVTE

For the test, the target named is PRMT5/MEP50 (Homo sapiens (Human), UniProt O14744). The test is described as follows: PRMT5 Biochemical Assay (PRMT5/MEP50 enzyme assay on peptide substrate, 3H-SAM Flashplate). To be noted: PRMT5/MEP50 4 nM, 3H-SAM 75 nM, peptide 40 nM. The text has this:
S-adenosylmethionine (SAM), S-adenosylhomocysteine (SAH), bicine, KCl, Tween20, dimethylsulfoxide (DMSO), bovine skin gelatin (BSG), and Tris(2-carboxyethyl)phosphine hydrochloride solution (TCEP) were purchased from Sigma-Aldrich at the highest level of purity possible. ^3H-SAM was purchase from American Radiolabeled Chemicals with a specific activity of 80 Ci/mmol. 384-well streptavidin Flashplates were purchased from PerkinElmer.
Peptide representative of human histone H4 residues 1-15 was synthesized with a C-terminal linker-affinity tag motif and a C-terminal amide cap by 21st Century Biochemicals. The peptide was high high-perfomance liquid chromatography (HPLC) purified to greater than 95% purity and confirmed by liquid chromatography mass spectrometry (LC-MS). The sequence was Ac-[…][K-Biot]-amide (SEQ ID NO.:3).
Full-length human PRMT5 (NM_006109.3) transcript variant 1 clone was amplified from a fetal brain cDNA library, incorporating flanking 5′ sequence encoding a FLAG tag ([…]) (SEQ ID NO.:4) fused directly to Ala 2 of PRMT5. Full-length human MEP50 (NM_024102) clone was amplified from a human testis cDNA library incorporating a 5′ sequence encoding a 6-histidine tag (MHHHHHH) (SEQ ID NO.:5) fused directly to Arg 2 of MEP50. The amplified genes were sublconed into pENTR/D/TEV (Life Technologies) and subsequently transferred by Gateway™ attL×attR recombination to pDEST8 baculvirus expression vector (Life Technologies).
Recombinant baculovirus and Baculovirus-Infected Insect Cells (BIIC) were generated according to Bac-to-Bac kit instructions (Life Technologies) and Wasilko, 2006, respectively. Protein over-expression was accomplished by infecting exponentially growing Spodoptera frugiperda (SF9) cell culture at 1.2×10^6 cell/ml with a 5000 fold dilution of BIIC stock. Infections were carried out at 27° C. for 72 hours, harvested by centrifugation, and stored at −80° C. for purification.
Flag-PRMT5/6His-MeP50 was eluted with 300 mM Imidazole in the same buffer. The purity of recovered protein was 87%. Reference: Wasilko, D. J. and S. E. Lee: “TIPS: titerless infected-cells preservation and scale-up” Bioprocess J., 5 (2006), pp. 29-32.
General Procedure for PRMT5/MEP50 Enzyme Assays on Peptide Substrates.
The assays were all performed in a buffer consisting of 20 mM Bicine (pH=7.6), 1 mM TCEP, 0.005% BSG, and 0.002% Tween20, prepared on the day of use. Compounds in 100% DMSO (1 ul) were spotted into a polypropylene 384-well V-bottom plates (Greiner) using a Platemate Plus outfitted with a 384-channel head (Thermo Scientific). DMSO (1 ul) was added to Columns 11, 12, 23, 24, rows A-H for the maximum signal control and 1 ul of SAH, a known product and inhibitor of PRMT5/MEP50, was added to columns 11, 12, 23, 24, rows I-P for the minimum signal control. A cocktail (40 ul) containing the PRMT5/MEP50 enzyme and the peptide was added by Multidrop Combi (Thermo-Fisher). The compounds were allowed to incubate with PRMT5/MEP50 for 30 min at 25 degrees Celsius, then a cocktail (10 ul) containing ^3H-SAM was added to initiate the reaction (final volume=51 ul). The final concentrations of the components were as follows: PRMT5/MEP50 was 4 nM, ^3H-SAM was 75 nM, peptide was 40 nM, SAH in the minimum signal control wells was 100 uM, and the DMSO concentration was 1%. The assays were stopped by the addition of non-radioactive SAM (10 ul) to a final concentration of 600 uM, which dilutes the ^3H-SAM to a level where its incorporation into the peptide substrate is no longer detectable. 50 ul of the reaction in the 384-well polypropylene plate was then transferred to a 384-well Flashplate and the biotinylated peptides were allowed to bind to the streptavidin surface for at least 1 hour before being washed three times with 0.1% Tween20 in a Biotek ELx405 plate washer. […]
A word on the IC50: it is the concentration that inhibits the measured activity by half. For `O=C1CN(c2cccc3cccnc23)CCN1CC(O)CN1CCc2ccccc2C1` (centres unmarked) [Compound 4, 1-(3-(3,4-dihydroisoquinolin-2(1H)-yl)-2-hydroxypropyl)-4-(quinolin-8-yl)piperazin-2-one], the IC50 is less than 100 nM. Next, `O=C1CN(c2cccc(F)c2)CCN1CC(O)CN1CCc2ccccc2C1` (centres unmarked) [Compound 6]: less than 100 nM. With `O=C1Cc2ccccc2N1CC(O)CN1CCc2ccccc2C1` (centres unmarked) [Compound 1, 1-(3-(3,4-dihydroisoquinolin-2(1H)-yl)-2-hydroxypropyl)indolin-2-one], the IC50 lay in the range of 101 to 1000 nM. Consider `O=c1cc(Nc2ccccc2)ccn1C[C@H](O)CN1CCc2ccccc2C1` [Compound 19, (R)-1-(3-(3,4-dihydroisoquinolin-2(1H)-yl)-2-hydroxypropyl)-4-(phenylamino)pyridin-2(1H)-one], for which the IC50 fell in the range of 101 to 1000 nM. Regarding `O=C1CN(c2ccccc2Cl)CCN1CC(O)CN1CCc2ccccc2C1` (centres unmarked) [Compound 9], the IC50 fell in the range of 101 to 1000 nM.

Consider `O=C1CN(c2ccc(Cl)cc2)CCN1CC(O)CN1CCc2ccccc2C1` (centres unmarked) [Compound 7, 4-(4-chlorophenyl)-1-(3-(3,4-dihydroisoquinolin-2(1H)-yl)-2-hydroxypropyl)piperazin-2-one], for which the IC50 is less than 100 nM. For `O=C1CN(c2cccc(N3CCOCC3)c2)CCN1CC(O)CN1CCc2ccccc2C1` (centres unmarked) [Compound 12, 1-(3-(3,4-dihydroisoquinolin-2(1H)-yl)-2-hydroxypropyl)-4-(3-morpholinophenyl)piperazin-2-one], the IC50 was less than 100 nM.

In the case of `CN(C)c1ccccc1N1CCN(C[C@H](O)CN2CCc3ccccc3C2)C(=O)C1` [Compound 29], the IC50 was in the range of 101 to 1000 nM. Next, `Cc1ccc(N2CCN(CC(O)CN3CCc4ccccc4C3)C(=O)C2)cc1` (centres unmarked) [Compound 15, 1-(3-(3,4-dihydroisoquinolin-2(1H)-yl)-2-hydroxypropyl)-4-(p-tolyl)piperazin-2-one]: 101 to 1000 nM. As to `O=C1CN(c2cncc(N3CCOCC3)c2)CCN1CC(O)CN1CCc2ccccc2C1` (centres unmarked) [Compound 8, 1-(3-(3,4-dihydroisoquinolin-2(1H)-yl)-2-hydroxypropyl)-4-(5-morpholinopyridin-3-yl)piperazin-2-one], the IC50 was less than 100 nM. As to `O=C1COc2ccccc2N1CC(O)CN1CCc2ccccc2C1` (centres unmarked) [Compound 31, 4-(3-(3,4-dihydroisoquinolin-2(1H)-yl)-2-hydroxypropyl)-2H-benzo[b][1,4]oxazin-3(4H)-one], the 50% inhibitory concentration (IC50) fell in the range of 101 to 1000 nM.
